“Also recorded” adds a separate entry of the source. Values belong to the compound of their own block, whether it stands above or below them.
Assays:
[1] = Polymorph obtained on crystallization of AAP from ethanol with or without crystalline substrate (DSC, XRPD); assay type: physicochemical; details: supersaturation 0.49 with respect to Form I; for Polymorphic form of AAP crystallized in the presence of substrate: substrate seeds added, DSC/XRPD, label = substrate
Source text: Such an observation implies that for both polymorphs their nucleation rate constants follow the relationship kI>kII. It was hypothesized crystalline substrates would be able to selectively crystallize Form II if they fit the following two core criteria: 1) the unit cell parameters of the substrate were substantially similar to that of Form II and 2) the molecular functionality of the compound acting as the substrate is similar to that of AAP. By constraining the crystallographic properties of the substrate in this way, a three dimensional lattice match with Form II was targeted. Furthermore, selection of compounds with similar functionality as AAP was selected to stabilize the formation of a nucleus through favorable interactions such as hydrogen bonds.
The crystallizations of AAP from ethanol were then repeated in the presence of 50 mg of 4-APAA seeds, added after the desired supersaturation had been achieved. Once crystallization occurred, the crystals were filtered immediately and analyzed by DSC and x-ray powder diffraction. […] Furthermore no melting endotherm for Form I which is often observed in DSC traces of apparently pure Form II.
A plot of dimensionless potential energy (V/V0) as a function of orientation angle (θ) for the interacting (001) faces of Form II acetaminophen and graphite was prepared. The EpiCalc calculation was performed using the following lattice values for the (001) faces of Form II acetaminophen and graphite: (001) Form II acetaminophen: a=17.1657 Å, b=11.7773 and Å and β=90° (001); graphite: a=b=2.456 Å and α=90°. The acetaminophen overlayer dimensions were 25×25 cells and the orientation angle range tested was 180° with a step size of 0.25°.

[2] = Nucleation induction time of AAP from ethanol in the presence of crystalline substrates; assay type: physicochemical; details: AAP Form I from ethanol; for Average induction times, τ: σ = 0.36, 15° C.; for Change in τ compared to bulk nucleation: σ = 0.36
Experimental: 1.5 mL aliquots of the stock solution were then syringe filtered into HPLC vials through a 0.2 μm nylon membrane in order to remove solid impurities. Crystallisations were carried out using a RS10 Clarity Solubility Station with non-intrusive infrared transmission probes and Integrity Client Software. The vials were initially held for 30 mins at 40° C. to ensure complete dissolution of AAP had occurred. After which they were cooled to 15° C. at a rate of 5° C./min and held at this temperature over a 24 hour period whilst the turbidity of the solution was monitored. Over the course of the experiments the stirring speed in each vial was held constant at 700 rpm. For those crystallizations requiring substrate, 3 mg was used. […] For each system studied 50 crystallisations were carried out to ensure a sufficient number of data points were obtained for statistical analysis.
The effectiveness of the five chosen substrates at promoting nucleation of AAP was measured by determining their effect on the nucleation induction time, τ. […] X-ray powder diffraction was used to confirm that it was the nucleation induction time of Form I being measured in all cases with any additional peaks in the diffraction patterns correspond to the substrates.
The percentage of vials crystallized as a function of time were plotted to give cumulative probability distributions of nucleation induction time for each system tested. […] It was assumed that nucleation follows a Poisson distribution (Equation 1). λ is the expected number of occurrences in the interval and k is the exact number of occurrences. If k=0 and […], then the probability of observing no nucleation events within a time, t, is given by equation 2 which is consistent with first order kinetic expressions previously used for studying nucleation events.
Using linear regression, plotting ln(P) against t (FIG. 10), the average induction times and associated errors were calculated (Table 3).

[3] = cited from earlier work; for Stability of the polymorph: ambient conditions / air
[4] = Polymorph obtained on crystallization of 3-ABSA from water with or without AMMP substrate (XRPD)
[5] = 3 mg substrate, 700 rpm, 50 crystallisations, label = substrate

Polymorphic form of AAP crystallized in the presence of substrate [1]: Form I
SMILES: [Cl-].[Na+] [Sodium Chloride, sodium chloride]

Average induction times, τ [2, 5]: 1910 ± 95 min
Change in τ compared to bulk nucleation ([2]; label = substrate): no measureable decrease in τ
SMILES: N[C@@H](Cc1c[nH]cn1)C(=O)O [L-histidine]

SMILES: Nc1cccc(S(=O)(=O)O)c1 [3-ABSA Form II, 3-aminobenzenesulfonic acid]
Stability of the polymorph [3]: thermodynamically most stable form under ambient conditions

SMILES: CC(=O)Nc1ccc(O)cc1 [AAP Form II, acetaminophen]
Time until Form I crystallizes via solvent mediated phase transformation when seeding with Form II ([3]; in solution, seeded with Form II): ≤ 15 min
Temperature of solid state transformation to Form I ([3]; solid state): Above 60 °C

SMILES: COc1cc(C)nc(N)n1 [AMMP]
Polymorphic form of 3-ABSA crystallized in the presence of substrate ([4]; aqueous solution saturated at 50° C., cooled to 10° C., 50 mg AMMP seeds, label = substrate): Form I crystallized; also recorded: a mixture of Forms I and II was obtained

SMILES: Nc1cccc(S(=O)(=O)O)c1 [3-ABSA, 3-aminobenzenesulfonic acid]
Polymorphic form of 3-ABSA crystallized without substrate ([4]; aqueous solution, no substrate): only Form II was obtained; also recorded: Form II had crystallized

SMILES: O.OC[C@H]1O[C@@H](O[C@H]2[C@H](O)[C@@H](O)[C@@H](O)O[C@@H]2CO)[C@H](O)[C@@H](O)[C@H]1O [α-LMH, α-lactose monohydrate]
Average induction times, τ [2, 5]: 410 ± 11 min
Change in τ compared to bulk nucleation ([2]; label = substrate): largest reduction in τ
Polymorphic form of AAP crystallized in the presence of substrate [1]: Form I

Average induction times, τ [2, 5]: 390 ± 8 min
Change in τ compared to bulk nucleation ([2]; label = substrate): largest reduction in τ
Polymorphic form of AAP crystallized in the presence of substrate [1]: Form I
SMILES: OC[C@@H](O)[C@@H](O)[C@H](O)[C@H](O)CO [D-mannitol]

Polymorphic form of AAP crystallized in the presence of substrate [1]: Form II crystallized
SMILES: Nc1ccc(CC(=O)O)cc1 [4-APAA, 4-aminophenylacetic acid]

Average induction times, τ ([2]; bulk nucleation, no substrate): 1930 ± 85 min
SMILES: CC(=O)Nc1ccc(O)cc1 [AAP Form I, acetaminophen, reference compound]
Stability of the polymorph [3]: thermodynamically stable phase under ambient conditions

SMILES: CC(=O)Nc1ccc(O)cc1 [AAP Form III, acetaminophen]
Stability of the polymorph [3]: highly unstable in air

Polymorphic form of AAP crystallized without substrate [1]: only Form I was obtained
SMILES: CC(=O)Nc1ccc(O)cc1 [AAP, acetaminophen, reference compound]

Source: patent US9822467B2, “Methods and systems relating to the selection of substrates comprising crystalline templates for the controlled crystallization of molecular species” (Massachusetts Institute of Technology, priority 2011, dated 2017)
